From ChEMBL document CHEMBL4177730, “Rational modification of semaxanib and sunitinib for developing a tumor growth inhibitor targeting ATP binding site of tyrosine kinase” (2018)
Activity calls are given as the source filed them.

Key:
Format in all cases: functional, cell-based
CCRF-CEM = assay: Growth inhibition of human CCRF-CEM cells at 10 uM after 48 hrs by sulforhodamine B assay
HL-60(TB) = assay: Growth inhibition of human HL-60(TB) cells at 10 uM after 48 hrs by sulforhodamine B assay
K562 = assay: Growth inhibition of human K562 cells at 10 uM after 48 hrs by sulforhodamine B assay
MOLT-4 = assay: Growth inhibition of human MOLT4 cells at 10 uM after 48 hrs by sulforhodamine B assay
RPMI-8226 = assay: Growth inhibition of human RPMI8226 cells at 10 uM after 48 hrs by sulforhodamine B assay
SR = assay: Growth inhibition of human SR cells at 10 uM after 48 hrs by sulforhodamine B assay
A549 = assay: Growth inhibition of human A549/ATCC cells at 10 uM after 48 hrs by sulforhodamine B assay
EKVX = assay: Growth inhibition of human EKVX cells at 10 uM after 48 hrs by sulforhodamine B assay
HOP-62 = assay: Growth inhibition of human HOP62 cells at 10 uM after 48 hrs by sulforhodamine B assay
HOP-92 = assay: Growth inhibition of human HOP92 cells at 10 uM after 48 hrs by sulforhodamine B assay
NCI-H226 = assay: Growth inhibition of human NCI-H226 cells at 10 uM after 48 hrs by sulforhodamine B assay
NCI-H23 = assay: Growth inhibition of human NCI-H23 cells at 10 uM after 48 hrs by sulforhodamine B assay
NCI-H322M = assay: Growth inhibition of human NCI-H322M cells at 10 uM after 48 hrs by sulforhodamine B assay
NCI-H460 = assay: Growth inhibition of human NCI-H460 cells at 10 uM after 48 hrs by sulforhodamine B assay
NCI-H522 = assay: Growth inhibition of human NCI-H522 cells at 10 uM after 48 hrs by sulforhodamine B assay
COLO 205 = assay: Growth inhibition of human COLO205 cells at 10 uM after 48 hrs by sulforhodamine B assay
HCC 2998 = assay: Growth inhibition of human HCC2998 cells at 10 uM after 48 hrs by sulforhodamine B assay
HCT-116 = assay: Growth inhibition of human HCT116 cells at 10 uM after 48 hrs by sulforhodamine B assay
HCT-15 = assay: Growth inhibition of human HCT15 cells at 10 uM after 48 hrs by sulforhodamine B assay
HT-29 = assay: Growth inhibition of human HT-29 cells at 10 uM after 48 hrs by sulforhodamine B assay
KM12 = assay: Growth inhibition of human KM12 cells at 10 uM after 48 hrs by sulforhodamine B assay
SW-620 = assay: Growth inhibition of human SW620 cells at 10 uM after 48 hrs by sulforhodamine B assay
SF-268 = assay: Growth inhibition of human SF268 cells at 10 uM after 48 hrs by sulforhodamine B assay
SF-295 = assay: Growth inhibition of human SF295 cells at 10 uM after 48 hrs by sulforhodamine B assay
SF-539 = assay: Growth inhibition of human SF539 cells at 10 uM after 48 hrs by sulforhodamine B assay
SNB-19 = assay: Growth inhibition of human SNB19 cells at 10 uM after 48 hrs by sulforhodamine B assay
SNB-75 = assay: Growth inhibition of human SNB75 cells at 10 uM after 48 hrs by sulforhodamine B assay
U-251 = assay: Growth inhibition of human U251 cells at 10 uM after 48 hrs by sulforhodamine B assay
LOX IMVI = assay: Growth inhibition of human LOXIMVI cells at 10 uM after 48 hrs by sulforhodamine B assay
Malme-3M = assay: Growth inhibition of human MALME-3M cells at 10 uM after 48 hrs by sulforhodamine B assay
M14 = assay: Growth inhibition of human M14 cells at 10 uM after 48 hrs by sulforhodamine B assay
MDA-MB-435 = assay: Growth inhibition of human MDA-MB-435 cells at 10 uM after 48 hrs by sulforhodamine B assay
SK-MEL-2 = assay: Growth inhibition of human SK-MEL-2 cells at 10 uM after 48 hrs by sulforhodamine B assay
SK-MEL-28 = assay: Growth inhibition of human SK-MEL-28 cells at 10 uM after 48 hrs by sulforhodamine B assay
SK-MEL-5 = assay: Growth inhibition of human SK-MEL-5 cells at 10 uM after 48 hrs by sulforhodamine B assay
UACC-62 = assay: Growth inhibition of human UACC62 cells at 10 uM after 48 hrs by sulforhodamine B assay
IGROV-1 = assay: Growth inhibition of human IGROV1 cells at 10 uM after 48 hrs by sulforhodamine B assay
OVCAR-3 = assay: Growth inhibition of human OVCAR3 cells at 10 uM after 48 hrs by sulforhodamine B assay
OVCAR-4 = assay: Growth inhibition of human OVCAR4 cells at 10 uM after 48 hrs by sulforhodamine B assay
OVCAR-5 = assay: Growth inhibition of human OVCAR5 cells at 10 uM after 48 hrs by sulforhodamine B assay
OVCAR-8 = assay: Growth inhibition of human OVCAR8 cells at 10 uM after 48 hrs by sulforhodamine B assay
NCI/ADR-RES = assay: Growth inhibition of human NCI-ADR-RES cells at 10 uM after 48 hrs by sulforhodamine B assay
SK-OV-3 = assay: Growth inhibition of human SKOV3 cells at 10 uM after 48 hrs by sulforhodamine B assay
786-0 = assay: Growth inhibition of human 786-0 cells at 10 uM after 48 hrs by sulforhodamine B assay
A498 = assay: Growth inhibition of human A498 cells at 10 uM after 48 hrs by sulforhodamine B assay
ACHN = assay: Growth inhibition of human ACHN cells at 10 uM after 48 hrs by sulforhodamine B assay
CAKI-1 = assay: Growth inhibition of human CAKI-1 cells at 10 uM after 48 hrs by sulforhodamine B assay
RXF 393 = assay: Growth inhibition of human RXF393 cells at 10 uM after 48 hrs by sulforhodamine B assay
SN12C = assay: Growth inhibition of human SN12C cells at 10 uM after 48 hrs by sulforhodamine B assay
TK-10 = assay: Growth inhibition of human TK10 cells at 10 uM after 48 hrs by sulforhodamine B assay
UO-31 = assay: Growth inhibition of human UO31 cells at 10 uM after 48 hrs by sulforhodamine B assay
PC-3 = assay: Growth inhibition of human PC3 cells at 10 uM after 48 hrs by sulforhodamine B assay
DU-145 = assay: Growth inhibition of human DU145 cells at 10 uM after 48 hrs by sulforhodamine B assay
MCF7 = assay: Growth inhibition of human MCF7 cells at 10 uM after 48 hrs by sulforhodamine B assay
MDA-MB-231 = assay: Growth inhibition of human MDA-MB-231 cells at 10 uM after 48 hrs by sulforhodamine B assay
Hs-578T = assay: Growth inhibition of human Hs 578T cells at 10 uM after 48 hrs by sulforhodamine B assay
BT-549 = assay: Growth inhibition of human BT549 cells at 10 uM after 48 hrs by sulforhodamine B assay
T47D = assay: Growth inhibition of human T47D cells at 10 uM after 48 hrs by sulforhodamine B assay
MDA-MB-468 = assay: Growth inhibition of human MDA-MB-468 cells at 10 uM after 48 hrs by sulforhodamine B assay

Measured: growth inhibition (GI)

O=C1/C(=C\c2cccn2C(=O)c2ccc(Cl)s2)c2ccccc2N1c1c(Cl)cccc1Cl
inactive: all assays above

Cc1ccc(S(=O)(=O)n2cccc2/C=C2\C(=O)N(c3c(Cl)cccc3Cl)c3ccccc32)cc1
inactive: all assays above
